Test results reported in patent US8765465B2, “Efficient production and use of highly cardiogenic progenitors and cardiomyocytes from embryonic and induced pluripotent stem cells” (Kyoto University, priority 2008, dated 2014).

Assays:
[1] = test system: Flk1+ cells; test: Mesoderm-specific treatment Flk-d0-2, cardiomyocytes at Flk-d6 (experiment 5); assay type: cell-based, mouse; details: added only Flk-d0-2
Description: Beating colonies started to be observed by Flk-d4. […] Experiment 1: differentiation from mesoderm to cardiomyocytes. […] Experiment 2: differentiation from undifferentiated ES cells to mesoderm. […] Experiment 3: differentiation from mesoderm to cardiac progenitors. […] Experiment 4: differentiation from cardiac progenitors to cardiomyocytes.
Medium was replaced every 2 days.

[2] = test system: Flk1+ mesoderm cells from EMG7 mouse ES cells; test: Cardiomyocyte induction from ES cell-derived Flk1+ mesoderm cells on OP9 (experiment 1); assay type: cell-based; details: added to Flk1+ cells
Description: Undifferentiated ES cells were cultured on OP9 cells or type IV collagen (Col. IV)-coated dishes (ES-d0) for 96-108 h in differentiation medium (see Methods) to induce differentiation to Flk1^+ cells. Flk1^+/E-cadherin^− mesoderm cells obtained by FACS were plated onto OP9 stroma cells to induce further differentiation to cardiomyocytes (designated as Flk-d0). FCV cells appeared at Flk-d2 as Flk1^+/CXCR4^+/vascular endothelial cadherin^− population. Beating colonies started to be observed by Flk-d4. Appearance of alpha-MHC promoter-driven GFP^+ cardiomyocytes were evaluated and collected at Flk-d6. Experiment 1: differentiation from mesoderm to cardiomyocytes. […] Experiment 2: differentiation from undifferentiated ES cells to mesoderm. […] Experiment 3: differentiation from mesoderm to cardiac progenitors. […] Experiment 4: differentiation from cardiac progenitors to cardiomyocytes.
After 96-108 h of ES cell differentiation, cultured cells were harvested and stained with allophycocyanin (APC)-conjugated AVAS12 and FITC-conjugated ECCD2. […] PKH-negative populations were analyzed and sorted as ES cell-derived cells. […] For FACS for cardiomyocytes, cells were harvested after 6 days culture of Flk1^+ cells on OP9 cells (Flk-d6), GFP^+ population was evaluated and sorted as differentiated cardiomyocytes.

Molecule | cardiomyocytes at Flk-d6 after mesoderm-specific addition [1] | effect on cardiomyocyte induction (cTnT staining) [2] | effect on cardiomyocytes relative to that of CSA [1]
TGF-β | significant decrease | – | –
11R-VIVIT | – | no significant effect | –
C=CC[C@@H]1/C=C(\C)C[C@H](C)C[C@H](OC)[C@H]2O[C@@](O)(C(=O)C(=O)N3CCCC[C@H]3C(=O)O[C@H](/C(C)=C/[C@@H]3CC[C@@H](O)[C@H](OC)C3)[C@H](C)[C@@H](O)CC1=O)[C@H](C)C[C@@H]2OC [FK506] | – | no significant effect | –
Dkk1: factor from R&D Systems (protein, UniProt O94907 32-266, looked up) Dickkopf-related protein 1: TLNSVLNSNAIKNLPPPLGGAAGHPGSAVSAAPGILYPGGNKYQTIDNYQPYPCAEDEECGTDEYCASPTRGGDAGVQICLACRKRRKRCMRHAMCCPGNYCKNGICVSSDQNHFRGEIEETITESFGNDHSTLDGYSRRTTLSSKMYHTKGQEGSVCLRSSDCASGLCCARHFWSKICKPVLKEGQVCTKHRRKGSHGLEIFQRCYCGEGLSCRIQKDHHQASNSSRLHTCQRH | significantly increased | – | much weaker
wnt3a: factor from R&D Systems (protein, UniProt P56704 19-352, looked up) Protein Wnt-3a: SYPIWWSLAVGPQYSSLGSQPILCASIPGLVPKQLRFCRNYVEIMPSVAEGIKIGIQECQHQFRGRRWNCTTVHDSLAIFGPVLDKATRESAFVHAIASAGVAFAVTRSCAEGTAAICGCSSRHQGSPGKGWKWGGCSEDIEFGGMVSREFADARENRPDARSAMNRHNNEAGRQAIASHMHLKCKCHGLSGSCEVKTCWWSQPDFRAIGDFLKDKYDSASEMVVEKHRESRGWVETLRPRYTYFKVPTERDLVYYEASPNFCEPNPETGSFGTRDRTCNVSSHGIDGCDLLCCGRGHNARAERRREKCRCVFHWCCYVSCQECTRVYDVHTCK | significant decrease | – | –
